# According to patent US12180228B2 (priority 2019, dated 2024):
# Tests used:
# [1] = test system: Toledo cell lines (diffuse large cell lymphoma; non-Hodgkin's B cell lymphoma); assay: cells; format: cell-based; conditions: Homo sapiens, 72 hours, CellTiter-Glo
# Protocol: (§1) Cells were grown in RPMI-1640+10% FBS+Pen/Strep and all are suspension cell lines. Each were plated at 250 cells per well in 50 μL of media in a 384 well plate and 50 nL of compounds was added via pin-tool (same as our usual procedure). Compounds were tested at 20 μM starting assay concentration in 20-pt, 2-fold dose in duplicate on the same assay plate. Cells were incubated with compound for 72 hours and viability was read out with CellTiter-Glo.
# [2] = test system: Jurkat cell lines (acute T cell leukemia); assay: cells; format: cell-based; conditions: Homo sapiens, 72 hours, CellTiter-Glo
# Protocol: as §1
# [3] = test system: K-562 cell lines (chronic myelogenous leukemia (CML)); assay: cells; format: cell-based; conditions: Homo sapiens, K562; 72 hours, CellTiter-Glo
# Protocol: as §1
# [4] = test system: A549 (alveolar adenocarcinoma); conditions: for IC50: read-out: Cytotoxicity IC50, A549, 72 h of compound treatment, Cell Titer-Glo (ATP levels), error is standard deviation of the mean, n ≥ 2
# Protocol: (§2) Cells were grown in media supplemented with fetal bovine serum (FBS) and antibiotics (100 μg/mL penicillin and 100 U/mL streptomycin).
# (§3) Cells were plated at 250 cells/well into duplicate assay plates in 50 μL media into 384-well white, opaque, tissue-culture treated plates and allowed to adhere overnight at 37° C./5% CO2. Compounds were solubilized in DMSO as 1000× stocks and […] was pin-transferred to cells (V&P pin tool mounted on Tecan Freedom Evo MCA96). Compounds were tested in 10-pt, 2-fold dilution with concentrations tested between 1 nM-20 μM for most compounds, except where indicated. DMSO (32 wells of 384-wells) was used as vehicle control. After 72 hours of incubation at 37° C./5% CO2, 10 μL Cell Titer-Glo (Promega) was added to each well and plates were incubated at room temperature for 10 minutes before the luminescence was read on a Tecan M1000 plate reader. Cell Titer-Glo measures ATP levels of cells as a surrogate for cell viability. All compound-treated wells was normalized to the DMSO control averages and expressed as a % of DMSO viability. IC50 values were determined from the dose curves using Spotfire (Perkin Elmer).
# [5] = test system: DU-145 (prostate carcinoma); conditions: for IC50: read-out: Cytotoxicity IC50, DU-145, 72 h of compound treatment, Cell Titer-Glo (ATP levels), error is standard deviation of the mean, n ≥ 2
# Protocol: as §2, §3
# [6] = test system: HeLa (cervical carcinoma); conditions: for IC50: read-out: Cytotoxicity IC50, HeLa, 72 h of compound treatment, Cell Titer-Glo (ATP levels), error is standard deviation of the mean, n ≥ 2
# Protocol: as §2, §3
# [7] = test system: five human cancer cell lines (HeLa, A549, MCF7, HCT116, DU-145); conditions: for cytotoxic activity relative to parent ETP (in words): same five cell lines
# Protocol: Cells were grown in media supplemented with fetal bovine serum (FBS) and antibiotics (100 μg/mL penicillin and 100 U/mL streptomycin). Specifically, experiments were performed using the following cell lines and media compositions: HeLa (cervical adenocarcimona) and A549 (lung carcinoma) were grown in RPMI-1640+10% FBS; HCT-116 (colorectal carcinoma) was grown in DMEM+10% FBS; DU-145 (prostate carcinoma) and MCF7 (breast adenocarcinoma) were grown in EMEM+10% FBS. Cells were incubated at 37° C. in a 5% CO2, 95% humidity atmosphere.
# as §3
# To evaluate the model and functionalized ETP probes as anticancer agents, fifteen derivatives were tested in culture against a panel of five human cancer cell lines (Table 1).
# [8] = Chemical stability of epidisulfides, in situ 1H NMR monitoring; format: physicochemical; conditions: triethylamine, 16 hours in deuteroacetonitrile
# Protocol: In the absence of base, 98% of epidisulfide (+)-8 remained after 20 hours in deuterochloroform.
# Monitoring in situ by ^1H NMR spectroscopy, 99% remaining starting material in the presence of triethylamine after 16 hours in deuteroacetonitrile was observed.
# [9] = test system: HCT116 (colorectal carcinoma); conditions: read-out: Cytotoxicity IC50, HCT116; 72 h of compound treatment, Cell Titer-Glo (ATP levels); error is standard deviation of the mean, n ≥ 2
# Protocol: as §2, §3
# [10] = test system: MCF7 (breast adenocarcinoma); conditions: read-out: Cytotoxicity IC50, MCF7; 72 h of compound treatment, Cell Titer-Glo (ATP levels); error is standard deviation of the mean, n ≥ 2
# Protocol: as §2, §3
# [11] = D2O and CD3CN, addition of glutathione; minutes with base or days without
# Protocol: The first study involved thiol-disulfide exchange of ETPs in organic solvents using a surrogate thiol, and then transitioned to more biologically informative aqueous conditions involving glutathione (Scheme 9).
# To investigate this, aliquots of the reaction were diluted starting with epidisulfide (+)-42 (“from ETP”) in CDCl3 to analyze the composition versus an internal standard over a period of 100 h.
Compound,cytotoxic activity relative to parent ETP (in words) [7],IC50 [4] [nM],IC50 [5] [nM],IC50 [9] [nM],IC50 [6] [nM],IC50 [10] [nM],other results
"CN1C(=O)[C@@]23C[C@]4(c5ccc(OCCCN=[N+]=[N-])cc5)c5ccccc5N(S(=O)(=O)c5ccccc5)[C@@H]4N2C(=O)[C@]1(C)SS3 [(+)-9d, Epidithiodiketopiperazine Azide]",,,,,,,"IC50 [1]: 1810 nM; IC50 [2]: 419 nM; IC50 [3]: 1280 nM; fold decrease in activity compared to model ETP (+)-42, A549 [4]: 2.7 fold; fold decrease in activity compared to model ETP (+)-42, DU-145 [5]: 8.6 fold; fold decrease in activity compared to model ETP (+)-42, HeLa [6]: 4.3 fold"
COc1ccc([C@]23C[C@]4(SSCc5ccc(F)cc5)C(=O)N(C)[C@@](C)(SSCc5ccc(F)cc5)C(=O)N4[C@H]2N(S(=O)(=O)c2ccccc2)c2ccccc23)cc1 [(+)-45b],approximately the same activities,,,,,,
"COc1ccc([C@]23C[C@@]45SS[C@@](C)(C(=O)N4[C@H]2N(S(=O)(=O)c2ccccc2)c2ccccc23)N(C)C5=O)cc1 [(+)-42, Epidithiodiketopiperazine]",,92 ± 87,36 ± 43,374 ± 83,32 ± 37,81 ± 64,"remaining starting material [8]: 99%; IC50 ([7]; read-out: activity (IC50 range) against the five cell lines, range over HeLa, A549, MCF7, HCT116, DU-145): 32 to 374 nM"
"COc1ccc([C@]23C[C@]4(SSC[C@H](NC(=O)CC[C@H](N)C(=O)O)C(=O)NCC(=O)O)C(=O)N(C)[C@@](C)(SSC[C@H](NC(=O)CC[C@H](N)C(=O)O)C(=O)NCC(=O)O)C(=O)N4[C@H]2N(S(=O)(=O)c2ccccc2)c2ccccc23)cc1 [Compound 46, Bis(L-glutathione)disulfide]",significantly less active,910 ± 324,580 ± 216,1100 ± 540,508 ± 75,500 ± 152,reversion of bisdisulfide to ETP (+)-42 (in words) [11]: quantitative reversion
COc1ccc([C@]23C[C@]4(SSCc5ccc(F)cc5)C(=O)N(C)[C@@H](SSCc5ccc(F)cc5)C(=O)N4[C@H]2N(S(=O)(=O)c2ccccc2)c2ccccc23)cc1 [(−)-45a],approximately the same activities,,,,,,
